Literature values as cited in patent US20250099385A1, “Extended Release Boswellic Acid and Manufacturing Thereof” (Lonza Greenwood LLC, priority 2022, published 2025).
Entries after “also recorded” stand apart in the source; their conditions may differ.

Legend:
5-lipoxygenase = target: T1, 5-lipoxygenase (Homo sapiens, UniProt P09917)
T1 sequence (P09917 1-674): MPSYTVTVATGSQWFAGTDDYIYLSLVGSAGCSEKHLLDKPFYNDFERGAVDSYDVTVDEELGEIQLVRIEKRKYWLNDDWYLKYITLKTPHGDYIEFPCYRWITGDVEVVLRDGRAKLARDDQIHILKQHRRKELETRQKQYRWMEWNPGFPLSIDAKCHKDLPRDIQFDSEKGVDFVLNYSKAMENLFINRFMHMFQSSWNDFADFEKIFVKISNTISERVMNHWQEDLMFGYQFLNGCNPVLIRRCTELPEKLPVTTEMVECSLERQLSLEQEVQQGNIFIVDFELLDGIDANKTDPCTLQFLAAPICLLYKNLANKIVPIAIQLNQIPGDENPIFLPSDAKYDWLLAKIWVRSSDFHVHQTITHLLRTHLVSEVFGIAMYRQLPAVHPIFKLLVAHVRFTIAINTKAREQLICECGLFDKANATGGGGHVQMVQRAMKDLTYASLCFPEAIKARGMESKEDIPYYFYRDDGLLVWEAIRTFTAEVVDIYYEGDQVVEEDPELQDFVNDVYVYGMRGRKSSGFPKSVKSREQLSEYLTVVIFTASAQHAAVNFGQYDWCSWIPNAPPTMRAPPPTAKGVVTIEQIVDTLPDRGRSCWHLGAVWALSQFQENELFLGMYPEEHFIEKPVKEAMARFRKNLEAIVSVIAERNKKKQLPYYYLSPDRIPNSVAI

[1] = not given; remark: listed apart in the source

For “3-O-acetyl-11-keto-.beta.-boswellic acid [AKBA]”, the “5-lipoxygenase inhibition, rank among the boswellic acids” value (5-lipoxygenase) is given as “most potent inhibitor”, the water solubility is given as “highly water-insoluble” and the “time at which AKBA levels in the blood peak” value ([1]; after oral consumption) is given as ~3 h. For the same substance, the “AKBA levels in the blood beyond 10 hours” value ([1]; beyond 10 hours from oral consumption) was “nearly zero concentration; also recorded: almost zero concentrations” and the bioavailability ([1]; in vivo) was “poorly bioavailable”.
